Source: ChEMBL document CHEMBL3880414, “Isoform Selective HDAC Inhibitors” (2010)
Values belong to the compound of their own block, whether it stands above or below them. Activity calls are given as the source filed them. The calls are words filed in the database; no cut-off is given here.

Legend:
Plasmodium falciparum [1] = assay: Antiparasitic activity against chloroquine-resistant/verapamil-sensitive Plasmodium falciparum Dd2; format: functional
Plasmodium falciparum [2] = assay: Antiparasitic activity against chloroquine-resistant/verapamil-insensitive Plasmodium falciparum 7G8; format: functional
[3] = Antiproliferative activity against human DU145 cells; format: functional, cell-based; conditions: DU-145
Plasmodium falciparum [4] = assay: Antiparasitic activity against Plasmodium falciparum 7G8 assessed as growth inhibition after 56 hrs; format: functional
Plasmodium falciparum [5] = assay: Antiparasitic activity against Plasmodium falciparum FCR-3/Gambia assessed as growth inhibition after 56 hrs; format: functional
[6] = Antiproliferative activity against human SCC35 cells; format: functional, cell-based
[7] = Antiproliferative activity against human MCF7/ADR cells; format: functional, cell-based; conditions: NCI/ADR-RES
Plasmodium falciparum [8] = assay: Antiparasitic activity against chloroquine-sensitive Plasmodium falciparum 3D7; format: functional
Plasmodium falciparum [9] = assay: Antiparasitic activity against Plasmodium falciparum 3D7 assessed as growth inhibition after 56 hrs; format: functional
[10] = Antiproliferative activity against human MDA231 cells; format: functional, cell-based; conditions: MDA-MB-231
Plasmodium falciparum [11] = assay: Antiparasitic activity against Plasmodium falciparum Dd2 assessed as growth inhibition after 56 hrs; format: functional
Plasmodium falciparum [12] = assay: Antiparasitic activity against chloroquine-resistant/verapamil-sensitive Plasmodium falciparum FCR-3/Gambia; format: functional
[13] = biological target: T1, Histone deacetylase (Homo sapiens) (UniProt Q13547+O15379+Q9UBN7+Q92769+Q9UQL6+Q8WUI4+Q9BY41+Q96DB2+P56524+Q9UKV0+Q969S8); assay: Inhibition of HDAC (unknown origin) at 100 nM using Fluor-Lys as substrate relative to control; format: protein assay
[14] = biological target: T1, Histone deacetylase (Homo sapiens); assay: Potency index, ratio of trichostatin A IC50 to compound IC50 for HDAC (unknown origin); format: protein assay
[15] = Antiproliferative activity against human MCF10A cells; format: cell-based; conditions: MCF-10A
Plasmodium falciparum [16] = assay: Antiparasitic activity against Plasmodium falciparum 3D7 assessed as growth inhibition; format: functional
Plasmodium falciparum [17] = assay: Antiparasitic activity against Plasmodium falciparum Dd2 assessed as growth inhibition; format: functional
Plasmodium falciparum [18] = assay: Potentiation of chloroquine-induced anitiparasitic activity in chloroquine-resistant/verapamil-sensitive Plasmodium falciparum Dd2 assessed as decrease in chloroquine IC50 relative to control; format: functional
Plasmodium falciparum [19] = assay: Antiparasitic activity against chloroquine-sensitive Plasmodium falciparum HB3; format: functional
Plasmodium falciparum [20] = assay: Potentiation of chloroquine-induced anitiparasitic activity in chloroquine-resistant/verapamil-sensitive Plasmodium falciparum FCB assessed as decrease in chloroquine IC50 relative to control; format: functional
Plasmodium falciparum [21] = assay: Antiparasitic activity against chloroquine-resistant/verapamil-sensitive Plasmodium falciparum FCB; format: functional
Plasmodium falciparum [22] = assay: Antiparasitic activity against chloroquine-resistant/verapamil-sensitive Plasmodium falciparum VS/1; format: functional
Plasmodium falciparum [23] = assay: Antiparasitic activity against chloroquine-resistant/verapamil-sensitive Plasmodium falciparum Dd2 assessed as growth inhibition in presence of chloroquine; format: functional
[24] = Antiproliferative activity against human HS68 cells; format: cell-based
[25] = Antiproliferative activity against human NHP5 cells; format: cell-based

Compound: O=C(CCCCCCC(=O)Nc1nc(-c2cccc([N+](=O)[O-])c2)cs1)NO
IC50 (Plasmodium falciparum [1]): 12 nM
IC50 (Plasmodium falciparum [2]): 10 nM
IC50 [3]: 320 nM
growth inhibition (GI) (Plasmodium falciparum [4]): Active
growth inhibition (GI) (Plasmodium falciparum [5]): Active
IC50 [6]: 380 nM
IC50 [7]: 3000 nM
IC50 (Plasmodium falciparum [8]): 30 nM
growth inhibition (GI) (Plasmodium falciparum [9]): Active
IC50 [10]: < 400 nM
growth inhibition (GI) (Plasmodium falciparum [11]): Active
IC50 (Plasmodium falciparum [12]): 22 nM

Compound: Nc1ccccc1-c1csc(NC(=O)CCCCCCC(=O)NO)n1
inhibition [13]: 2%

Ratio IC50 [14]: 2
Compound: CCOC(=O)Nc1cccc(-c2csc(NC(=O)CCCCCCC(=O)NO)n2)c1
IC50 [3]: 520 nM
IC50 [6]: 190 nM

Compound: N[C@@H](Cc1ccccc1)C(=O)Nc1ccccc1-c1ccc(NC(=O)CCCCCCC(=O)NO)cc1
IC50 [15]: 100 µM

Compound: Nc1ccccc1-c1ccc(NC(=O)CCCCCCC(=O)NO)cc1
IC50 [3]: 180 nM
growth inhibition (GI) (Plasmodium falciparum [16]): Active
growth inhibition (GI) (Plasmodium falciparum [4]): Active
IC50 [6]: 2580 nM
IC50 [7]: 10000 nM
growth inhibition (GI) (Plasmodium falciparum [17]): Active
IC50 [10]: 1000 nM

Compound: O=C(CCCCCCC(=O)Nc1ccc(-c2ccccc2)cc1)NO
IC50 [3]: 580 nM
growth inhibition (GI) (Plasmodium falciparum [16]): Active
growth inhibition (GI) (Plasmodium falciparum [4]): Active
IC50 [6]: 100 nM
IC50 [7]: 350 nM
growth inhibition (GI) (Plasmodium falciparum [17]): Active
IC50 [10]: < 400 nM

Compound: CN(C)c1ccc(NC(=O)NCCCCCCC(=O)NO)cc1
fold change (FC) (Plasmodium falciparum [18]): 3.5
IC50 (Plasmodium falciparum [19]): 250 nM
IC50 (Plasmodium falciparum [1]): 185 nM
IC50 (Plasmodium falciparum [2]): 300 nM
fold change (FC) (Plasmodium falciparum [20]): 5.5
IC50 (Plasmodium falciparum [8]): 450 nM
IC50 (Plasmodium falciparum [21]): 125 nM
IC50 (Plasmodium falciparum [22]): 250 nM
IC50 (Plasmodium falciparum [12]): 175 nM

Compound: O=C(CCCCCCC(=O)Nc1nc(-c2ccccc2)cs1)NO
IC50 [3]: 190 nM
growth inhibition (GI) (Plasmodium falciparum [4]): Active
growth inhibition (GI) (Plasmodium falciparum [5]): Active
IC50 [6]: 280 nM
IC50 [7]: 400 nM
growth inhibition (GI) (Plasmodium falciparum [9]): Active
IC50 [10]: < 400 nM
growth inhibition (GI) (Plasmodium falciparum [11]): Active

Compound: Nc1cccc(-c2csc(NC(=O)CCCCCCC(=O)NO)n2)c1
IC50 (Plasmodium falciparum [19]): 0.9 nM
IC50 (Plasmodium falciparum [2]): 0.175 nM
IC50 [3]: 320 nM
growth inhibition (GI) (Plasmodium falciparum [4]): Active
growth inhibition (GI) (Plasmodium falciparum [5]): Active
IC50 [6]: 100 nM
IC50 [7]: 3000 nM
IC50 (Plasmodium falciparum [8]): 1.25 nM
growth inhibition (GI) (Plasmodium falciparum [9]): Active
growth inhibition (GI) (Plasmodium falciparum [23]): Active
IC50 [10]: < 400 nM
growth inhibition (GI) (Plasmodium falciparum [11]): Active

Compound: N[C@@H](Cc1c[nH]c2ccccc12)C(=O)Nc1ccccc1-c1ccc(NC(=O)CCCCCCC(=O)NO)cc1
IC50 [15]: > 100 µM
IC50 [24]: > 300 µM

Compound: N[C@@H](Cc1ccc(O)cc1)C(=O)Nc1ccccc1-c1ccc(NC(=O)CCCCCCC(=O)NO)cc1
IC50 [15]: > 100 µM
IC50 [24]: > 300 µM
IC50 [25]: 100 µM
